From ChEMBL document CHEMBL1201862, “PubChem BioAssay data set” (2004)
Blank lines part the entries; values can stand above or below the molecule they belong to. Activity calls are given as the source filed them.

Assays:
[1] = target: T1, Cytochrome P450 1A2 (Homo sapiens, UniProt P05177);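 further: PubChem cytochrome P450 panel assay, CYP1A2 panel member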
T1 sequence (P05177 whole entry): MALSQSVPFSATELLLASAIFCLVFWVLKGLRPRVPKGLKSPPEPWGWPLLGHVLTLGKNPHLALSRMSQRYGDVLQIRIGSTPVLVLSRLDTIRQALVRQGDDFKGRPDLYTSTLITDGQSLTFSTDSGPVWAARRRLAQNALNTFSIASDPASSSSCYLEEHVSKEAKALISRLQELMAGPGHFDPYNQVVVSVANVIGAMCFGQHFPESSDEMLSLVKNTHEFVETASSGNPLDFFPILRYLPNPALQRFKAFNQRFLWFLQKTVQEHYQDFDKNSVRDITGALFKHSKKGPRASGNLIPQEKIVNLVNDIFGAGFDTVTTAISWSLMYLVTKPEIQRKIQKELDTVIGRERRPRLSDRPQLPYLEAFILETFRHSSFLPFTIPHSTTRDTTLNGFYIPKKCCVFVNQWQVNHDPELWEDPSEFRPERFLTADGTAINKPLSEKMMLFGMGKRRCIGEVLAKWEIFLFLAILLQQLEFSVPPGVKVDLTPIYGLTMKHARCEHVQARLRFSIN

[2] = target: T2, Alkaline phosphatase, tissue-nonspecific isozyme (Homo sapiens, UniProt P05186); test: inhibition of tissue-nonspecific alkaline phosphatase – biochemical, dose response (AID 488882); format: functional
T2 sequence (P05186 whole entry): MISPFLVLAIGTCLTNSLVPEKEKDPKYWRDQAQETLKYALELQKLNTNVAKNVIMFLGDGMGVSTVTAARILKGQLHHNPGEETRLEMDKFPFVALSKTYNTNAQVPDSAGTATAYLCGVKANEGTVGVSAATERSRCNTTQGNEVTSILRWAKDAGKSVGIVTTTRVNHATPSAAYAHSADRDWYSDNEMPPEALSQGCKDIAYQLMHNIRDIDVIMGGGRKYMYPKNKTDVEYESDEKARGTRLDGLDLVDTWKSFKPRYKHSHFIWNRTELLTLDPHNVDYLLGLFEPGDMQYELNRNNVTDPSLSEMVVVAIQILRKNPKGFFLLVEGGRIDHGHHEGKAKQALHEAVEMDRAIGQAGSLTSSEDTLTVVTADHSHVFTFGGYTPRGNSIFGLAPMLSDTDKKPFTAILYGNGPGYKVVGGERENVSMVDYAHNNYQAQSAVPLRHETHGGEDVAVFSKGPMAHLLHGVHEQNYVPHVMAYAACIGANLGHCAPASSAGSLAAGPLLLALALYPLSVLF

[3] = target: T3, Intestinal-type alkaline phosphatase (Homo sapiens, UniProt P09923); test: Dose Response confirmation of uHTS hits from a small molecule inhibitors of human intestinal alkaline phosphatase via a luminescent assay. [Related pubchem assays (depositor defined):AID2544, AID2574]; format: functional
T3 sequence (P09923 whole entry): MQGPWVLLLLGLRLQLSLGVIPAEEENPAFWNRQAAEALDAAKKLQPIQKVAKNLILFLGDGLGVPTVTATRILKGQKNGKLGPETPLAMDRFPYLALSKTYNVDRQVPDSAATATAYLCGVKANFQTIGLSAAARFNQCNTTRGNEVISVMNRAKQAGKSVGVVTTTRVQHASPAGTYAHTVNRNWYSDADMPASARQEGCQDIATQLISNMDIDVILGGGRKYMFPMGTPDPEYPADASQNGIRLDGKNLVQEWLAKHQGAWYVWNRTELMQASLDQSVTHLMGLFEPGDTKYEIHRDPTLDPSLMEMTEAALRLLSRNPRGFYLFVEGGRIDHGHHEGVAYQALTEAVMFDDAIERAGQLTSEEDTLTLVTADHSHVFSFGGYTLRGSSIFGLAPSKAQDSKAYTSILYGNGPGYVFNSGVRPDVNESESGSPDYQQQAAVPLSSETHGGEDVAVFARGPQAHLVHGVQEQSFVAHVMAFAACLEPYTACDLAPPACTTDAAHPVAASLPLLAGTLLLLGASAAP

[4] = target: Intestinal-type alkaline phosphatase (Mus musculus, UniProt P24822); test: PubChem AID 488874; format: functional
Sequence of Intestinal-type alkaline phosphatase (Mus musculus, UniProt P24822) (P24822 whole entry): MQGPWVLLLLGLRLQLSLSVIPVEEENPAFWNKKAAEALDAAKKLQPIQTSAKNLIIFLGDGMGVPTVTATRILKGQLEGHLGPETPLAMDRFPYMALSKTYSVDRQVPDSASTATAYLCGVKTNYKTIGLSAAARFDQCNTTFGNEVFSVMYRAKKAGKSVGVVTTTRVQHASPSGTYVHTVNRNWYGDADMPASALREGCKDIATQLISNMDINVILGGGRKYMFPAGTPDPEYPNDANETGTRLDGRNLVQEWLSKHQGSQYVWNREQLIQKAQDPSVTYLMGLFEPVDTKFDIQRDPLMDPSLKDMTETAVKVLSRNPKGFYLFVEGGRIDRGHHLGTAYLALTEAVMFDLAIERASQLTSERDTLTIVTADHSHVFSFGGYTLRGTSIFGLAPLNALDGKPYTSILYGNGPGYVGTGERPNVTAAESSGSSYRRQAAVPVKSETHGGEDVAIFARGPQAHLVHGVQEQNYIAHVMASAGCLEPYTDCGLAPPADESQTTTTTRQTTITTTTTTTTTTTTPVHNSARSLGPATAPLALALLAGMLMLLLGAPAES

[5] = target: T3, Intestinal-type alkaline phosphatase; test: inhibition of human intestinal alkaline phosphatase – biochemical, luminescent, uHTS hits, set 2, dose response (AID 488793); format: functional
[6] = viability loss of HMLE_sh_eGFP cells – cell-based, luminescence, counter-screen for HMLE_sh_ECad selective toxicity project, dose response (AID 463074); format: functional, Homo sapiens;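 further: HMLE human mammary epithelial cells expressing control shRNA against eGFP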
[7] = Luminescence Cell-Based Dose Retest to Confirm Inhibitors of Cancer Stem Cells. [Related pubchem assays (depositor defined):AID2717, AID2721]; format: functional, Homo sapiens; conditions: Homo sapiens
[8] = target: G-protein coupled receptor 55 (Homo sapiens, UniProt Q9Y2T6); test: blockers of GPR55 signalling, imaged – imaging, image-based, counter-screen for GPR35 antagonist project, SAR follow-up (AID 2397); format: functional
Sequence of G-protein coupled receptor 55 (Q9Y2T6 whole entry): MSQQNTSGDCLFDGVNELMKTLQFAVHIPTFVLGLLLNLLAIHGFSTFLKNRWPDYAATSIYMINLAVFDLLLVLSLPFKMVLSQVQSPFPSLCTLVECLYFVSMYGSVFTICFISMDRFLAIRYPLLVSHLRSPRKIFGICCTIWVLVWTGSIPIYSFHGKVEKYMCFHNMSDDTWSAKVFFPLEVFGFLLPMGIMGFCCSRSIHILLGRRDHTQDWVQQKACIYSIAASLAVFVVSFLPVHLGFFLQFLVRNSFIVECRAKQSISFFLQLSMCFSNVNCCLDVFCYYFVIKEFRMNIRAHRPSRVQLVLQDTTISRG

[9] = target: T3, Intestinal-type alkaline phosphatase; test: human intestinal alkaline phosphatase activators, dose response, biochemical, luminescence, uHTS hits (AID 463120); format: functional
[10] = target: T2, Alkaline phosphatase, tissue-nonspecific isozyme; test: activation of tissue-nonspecific alkaline phosphatase – biochemical, TNAP isozyme, human IAP uHTS hits, selectivity assay for human IAP activator project, dose response (AID 488886); format: functional;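 further: potency of compounds raising TNAP activity as a selectivity check on IAP activators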
[11] = target: T3, Intestinal-type alkaline phosphatase; test: activation of human intestinal alkaline phosphatase – biochemical, luminescent, uHTS hits, set 2, dose response (AID 488817); format: functional;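 further: potency of activators that raise enzyme activity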

SMILES: CC(=O)ON(C(C)=O)S(=O)(=O)c1ccc(Cl)cc1
AC50 [1]: inconclusive

SMILES: Cc1ccc(S(=O)(=O)N(CC(=O)N=Nc2c(O)[nH]c3ccccc23)c2cccc(C)c2)cc1
AC50 [6]: 58.6 µM (active)
AC50 [7]: 4.85 µM (active)

More lines, now with the values ahead:

IC50 [2]: 38.1 µM (active)
IC50 [3]: 19.3 µM (inactive)
IC50 [4]: 33.1 µM (active)
IC50 [5]: 35.8 µM (active)
SMILES: CCOc1cc(/C=C2/C(=O)ON=C2C)cc(Br)c1O

IC50 [8]: > 32 µM (inactive)
SMILES: CC(C)COc1ccc(-c2nnc(-c3ccc(Cl)nc3)o2)cc1

EC50 [9]: 7.5 µM (active)
EC50 [10]: 14.1 µM (active)
IC50 [4]: 41.2 µM (active)
EC50 [11]: 13.3 µM (active)
SMILES: COc1ccc(C2=NN(C3=NN=C(N)Cc4ncnn43)C(O)(C(F)(F)F)C2)cc1 (configuration not stated)
